{"source": "patent EP4088714A1", "about": "“OPHTHALMIC PHARMACEUTICAL COMPOSITION COMPRISING ATROPINE” (Warszawskie Zaklady Farmaceutyczne Polfa S.A., priority 2021, dated 2022)", "origin": "cited, not measured here"}
{"smiles": "CN1[C@@H]2CC[C@H]1C[C@@H](OC(=O)C(CO)c1ccccc1)C2", "note": "(some centres unmarked) [atropine, Atropine]", "values": [{"measurement": "need for photochromatic glasses", "setting": "concentrations 0.01% to 0.05%, treated patients, two years of treatment", "value": "higher than 30%"}, {"measurement": "tolerability", "setting": "concentrations ranging from 0.01% to 0.05%, 383 children, after two years of treatment", "value": "well tolerated"}]}
